From patent publication US9833497B2, “Human originated EGF domain proteins and use of the same” (CHENGDU SOURCEBIO LIMITED-LIABILITY COMPANY, priority 2013, dated 2017) come the findings set out here.

Holding throughout (type): cell-based
One experiment deals with E. coli DH5α. As to the kind of experiment: Antibacterial activity: MIC and growth curve against E. coli DH5α in 96-well plate. To be noted: minimal inhibitory concentration against E. coli DH5α; 96-well plate, 5×10^5 CFU/mL, 37° C., judged after 8 h. Summed up: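 Log-phase bacteria (OD600 ~0.5) resuspended in LB at 5×10^5 CFU/mL, exposed to recombinant protein at 50, 25, 12.5 μg/mL final in triplicate, 37 °C shaking at 175 rpm. OD600 read every 30 min; MIC is lowest concentration showing no growth.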

In another experiment the test system is E. coli BL21. As to the kind of experiment: MIC against Gram-negative bacteria: E. coli BL21. Summed up:
(§1)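 Broth microdilution, LB medium, final inoculum 5×10^5 CFU/mL from McFarland 0.5 cultures. Recombinant human EGF domain proteins tested in two-fold steps, n=3. MIC: lowest concentration, no growth.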

The next experiment relates to Moraxella catarrhalis. As to the kind of experiment: MIC against Gram-negative bacteria: Moraxella catarrhalis. A digest of the protocol:
as §1

A further experiment has as its system Klebsiella pneumonia. Briefly: MIC against Gram-negative bacteria: Klebsiella pneumonia. A digest of the protocol:
as §1

The subject of the next experiment is Pseudomonas aeruginosa. As to the kind of experiment: MIC against Gram-negative bacteria: Pseudomonas aeruginosa. A digest of the protocol: as §1
Another experiment relates to Serratia marcescens. As to the kind of experiment: MIC against Gram-negative bacteria: Serratia marcescens. A digest of the protocol: as §1
In another experiment the test system is Citrobacter diversus. Briefly: MIC against Gram-negative bacteria: Citrobacter diversus. A digest of the protocol:
as §1

For the next experiment, the system named is Proteus mirabilis. Briefly: MIC against Gram-negative bacteria: Proteus mirabilis. Summed up: as §1
In the next experiment the test system is Aeromonas hydrophila. Briefly: MIC against Gram-negative bacteria: Aeromonas hydrophila. A digest of the protocol:
as §1

The test system of a further experiment is Enterobacter cloacae. Briefly: MIC against Gram-negative bacteria: Enterobacter cloacae. A digest of the protocol:
as §1

A further experiment relates to Proteus vulgaris. As to the kind of experiment: MIC against Gram-negative bacteria: Proteus vulgaris. A digest of the protocol: as §1
The mark [1] stands for this setting: 10 h cultivation at 37° C., 5×10^5 CFU/mL, two-fold serial dilution.
Where [2] appears, read: 96-well plate, 5×10^5 CFU/mL, 37° C., 10 h.

As for “PRT1112 (GAPVCAPSPCLHDGACRDLFDAFACACGPGWEGPRCE; listed as Homo sapiens)”, the MIC against E. coli DH5α was 50 µg/mL. Besides, the “MIC E. coli BL21” value in the experiment on E. coli BL21 (setting [1]) turned out to be 25 µg/mL. For the same substance, the “MIC M. catarrhalis” value against Moraxella catarrhalis (setting [1]) stood at 12.5 µg/mL. Also, the “MIC K. pneumonia” value in the experiment on Klebsiella pneumonia (setting [1]) was determined as 25 µg/mL. Besides, in the experiment on Pseudomonas aeruginosa (setting [1]), the “MIC P. aeruginosa” value came out at 12.5 µg/mL. For the same substance, in the experiment on Serratia marcescens (setting [1]), the “MIC S. marcescens” value was 25 µg/mL. Moreover, in the experiment on Citrobacter diversus (setting [1]), the “MIC C. diversus” value worked out at 25 µg/mL. Besides, the “MIC P. mirabilis” value in the experiment on Proteus mirabilis (setting [1]) amounted to 25 µg/mL. Also, the “MIC A. hydrophila” value in the experiment with Aeromonas hydrophila (setting [1]) was determined as 12.5 µg/mL. Also, in the experiment with Enterobacter cloacae (setting [1]), the “MIC E. cloacae” value came out at 50 µg/mL. Also, the “MIC P. vulgaris” value in the experiment on Proteus vulgaris (setting [1]) came to 12.5 µg/mL.
In the experiment on E. coli DH5α, “PRT461 (DVDECAWDAHLCREGQRCVNLLGSYRCLPDCGPGFRVADGAGCE; listed as Homo sapiens)” returned an MIC of 50 µg/mL. The “MIC against E. coli BL21” value with E. coli BL21 (setting [2]) came to 12.5 µg/mL. Further, the “MIC against M. catarrhalis” value against Moraxella catarrhalis (setting [2]) was determined as 25 µg/mL. For the same substance, the “MIC against K. pneumonia” value in the experiment with Klebsiella pneumonia (setting [2]) stood at 12.5 µg/mL. Moreover, the “MIC against P. aeruginosa” value against Pseudomonas aeruginosa (setting [2]) is 50 µg/mL. The “MIC against S. marcescens” value with Serratia marcescens (setting [2]) came to 12.5 µg/mL. Moreover, the “MIC against C. diversus” value against Citrobacter diversus (setting [2]) was determined as 50 µg/mL. Moreover, the “MIC against P. mirabilis” value in the experiment with Proteus mirabilis (setting [2]) amounted to 12.5 µg/mL. For the same substance, the “MIC against A. hydrophila” value with Aeromonas hydrophila (setting [2]) was found to be 12.5 µg/mL. In addition, the “MIC against E. cloacae” value against Enterobacter cloacae (setting [2]) stood at 50 µg/mL. The “MIC against P. vulgaris” value against Proteus vulgaris (setting [2]) stood at 25 µg/mL.
In turn, “PRT876 (TAKPCLSNPCKNNGMCRDGWNRYVCDCSGTGYLGRSCE; listed as Homo sapiens)” had an MIC in the experiment on E. coli DH5α of 12.5 µg/mL. Besides, the “MIC (μg/mL) E. coli BL21” value in the experiment with E. coli BL21 (E. coli BL21, 10 h cultivation at 37° C., 5×10^5 CFU/mL) worked out at 12.5 µg/mL. The “MIC (μg/mL) M. catarrhalis” value against Moraxella catarrhalis (M. catarrhalis, 10 h cultivation at 37° C., 5×10^5 CFU/mL) was found to be 12.5 µg/mL. Further, the “MIC (μg/mL) K. pneumonia” value in the experiment on Klebsiella pneumonia (K. pneumonia, 10 h cultivation at 37° C., 5×10^5 CFU/mL) turned out to be 12.5 µg/mL. Also, the “MIC (μg/mL) P. aeruginosa” value in the experiment with Pseudomonas aeruginosa (P. aeruginosa, 10 h cultivation at 37° C., 5×10^5 CFU/mL) stood at 12.5 µg/mL. For the same substance, the “MIC (μg/mL) S. marcescens” value in the experiment on Serratia marcescens (S. marcescens, 10 h cultivation at 37° C., 5×10^5 CFU/mL) stood at 25 µg/mL. For the same substance, the “MIC (μg/mL) C. diversus” value in the experiment on Citrobacter diversus (C. diversus, 10 h cultivation at 37° C., 5×10^5 CFU/mL) was found to be 25 µg/mL. In addition, the “MIC (μg/mL) P. mirabilis” value in the experiment on Proteus mirabilis (P. mirabilis, 10 h cultivation at 37° C., 5×10^5 CFU/mL) was 25 µg/mL. Moreover, in the experiment with Aeromonas hydrophila (A. hydrophila, 10 h cultivation at 37° C., 5×10^5 CFU/mL), the “MIC (μg/mL) A. hydrophila” value is 12.5 µg/mL. Also, in the experiment on Enterobacter cloacae (E. cloacae, 10 h cultivation at 37° C., 5×10^5 CFU/mL), the “MIC (μg/mL) E. cloacae” value was found to be 25 µg/mL. In the experiment with Proteus vulgaris (P. vulgaris, 10 h cultivation at 37° C., 5×10^5 CFU/mL), the “MIC (μg/mL) P. vulgaris” value was 25 µg/mL.
“PRT137 (NPCQGSATCVNTPGERSFLCKCPPGYSGTICE; listed as Homo sapiens)” registered an MIC against E. coli DH5α of 25 µg/mL. In the experiment on E. coli BL21 (E. coli BL21, 96-well plate, 5×10^5 CFU/mL, 37° C., 10 h), the “MIC (μg/mL) E. coli BL21” value was 12.5 µg/mL. Also, in the experiment with Moraxella catarrhalis (Moraxella catarrhalis, 96-well plate, 5×10^5 CFU/mL, 37° C., 10 h), the “MIC (μg/mL) M. catarrhalis” value is 12.5 µg/mL. Also, the “MIC (μg/mL) K. pneumonia” value with Klebsiella pneumonia (Klebsiella pneumonia, 96-well plate, 5×10^5 CFU/mL, 37° C., 10 h) turned out to be 12.5 µg/mL. Also, in the experiment with Pseudomonas aeruginosa (Pseudomonas aeruginosa, 96-well plate, 5×10^5 CFU/mL, 37° C., 10 h), the “MIC (μg/mL) P. aeruginosa” value came to 25 µg/mL. Besides, the “MIC (μg/mL) S. marcescens” value with Serratia marcescens (Serratia marcescens, 96-well plate, 5×10^5 CFU/mL, 37° C., 10 h) was found to be 50 µg/mL. In the experiment on Citrobacter diversus (Citrobacter diversus, 96-well plate, 5×10^5 CFU/mL, 37° C., 10 h), the “MIC (μg/mL) C. diversus” value came to 25 µg/mL. Besides, the “MIC (μg/mL) P. mirabilis” value with Proteus mirabilis (Proteus mirabilis, 96-well plate, 5×10^5 CFU/mL, 37° C., 10 h) was determined as 25 µg/mL. Besides, the “MIC (μg/mL) A. hydrophila” value against Aeromonas hydrophila (Aeromonas hydrophila, 96-well plate, 5×10^5 CFU/mL, 37° C., 10 h) is 12.5 µg/mL. Besides, the “MIC (μg/mL) E. cloacae” value with Enterobacter cloacae (Enterobacter cloacae, 96-well plate, 5×10^5 CFU/mL, 37° C., 10 h) is 25 µg/mL. Besides, in the experiment with Proteus vulgaris (Proteus vulgaris, 96-well plate, 5×10^5 CFU/mL, 37° C., 10 h), the “MIC (μg/mL) P. vulgaris” value is 12.5 µg/mL.
Consider “PRT925 (DINECHSDPCQNDATCLDKIGGFTCLCMPGFKGVHCE; listed as Homo sapiens)”, for which the minimal inhibitory concentration (MIC) worked out at 12.5 µg/mL in the experiment on E. coli DH5α; 25 µg/mL with E. coli BL21 (E. coli BL21, 10 h cultivation at 37° C.); 12.5 µg/mL in the experiment on Moraxella catarrhalis (M. catarrhalis, 10 h cultivation at 37° C.); 12.5 µg/mL against Klebsiella pneumonia (K. pneumonia, 10 h cultivation at 37° C.); 50 µg/mL with Pseudomonas aeruginosa (P. aeruginosa, 10 h cultivation at 37° C.); 12.5 µg/mL in the experiment with Serratia marcescens (S. marcescens, 10 h cultivation at 37° C.). Further, the minimum inhibitory concentration (MIC) with Citrobacter diversus (C. diversus, 10 h cultivation at 37° C.) turned out to be 25 µg/mL; with Proteus mirabilis (P. mirabilis, 10 h cultivation at 37° C.) it was 25 µg/mL; in the experiment on Aeromonas hydrophila (A. hydrophila, 10 h cultivation at 37° C.), 50 µg/mL; against Enterobacter cloacae (E. cloacae, 10 h cultivation at 37° C.) it was 25 µg/mL; in the experiment with Proteus vulgaris (P. vulgaris, 10 h cultivation at 37° C.), 50 µg/mL.

As usually defined, the MIC is the lowest concentration that inhibits growth of the organism. High values mean a need for much substance, low ones inhibition by little substance.
